In paper PMC12469672, “Effects on Oral Squamous Carcinoma Cell Lines and Their Mechanisms of Pyrazole N-Aryl Sulfonate: A Novel Class of Selective Cyclooxygenase-2 Inhibitors” (International Journal of Molecular Sciences, 2025):
“Also recorded” adds a separate entry of the source. Read-outs that look alike come from different tables or passages of the source.

Legend:
Assay type in all cases: cell-based
COX-2 mRNA in SAS cells = test: RT-qPCR COX-2 mRNA, SAS; conditions: working concentrations, 24 h, vs control
Experimental: (§1) Equal amounts of RNA were reverse transcribed into cDNA using the Reverse Transcription Kit (AG11705, Accurate Biology, Guangzhou, China) following the manufacturer’s instructions. Quantitative PCR was performed on a QIAGEN Rotor-GeneQ system (9001862, QIAGEN, Hilden, Germany) with SYBR Green Pro Taq HS Premix II (AG11702, Accurate Biology, China).
(§2) The PCR protocol consisted of initial denaturation at 95 °C for 30 s, followed by 40 cycles of 95 °C for 5 s and 60 °C for 30 s. All reactions were performed in triplicate, with melting curve analysis confirming amplification specificity. The expression of the target genes was normalized to GAPDH, and fold changes were calculated in the manner of the 2^−ΔΔCT .

CAL-27 cells [1] = test: CCK-8 proliferation assay, CAL-27; conditions: for IC50: Homo sapiens; for Selectivity Index CAL-27: SI = IC50,VERO/IC50,CAL-27
Experimental: The OSCC cell lines CAL-27 (STCC12901P, Servicebio, Wuhan, China) and SAS (CC0706, Cellcook, Guangzhou, China) were cultured in Dulbecco Modified Eagle Medium F12 (DMEM/F12) (G4610-500ML, Servicebio, Wuhan, China) supplemented with 10% fetal bovine serum (FBS) (AB-FBS-DIA1050, ABW, Shanghai, China) and 100 U/mL penicillin-streptomycin-gentamicin solution (G4014-100ML, Servicebio, Wuhan, China). VERO cells were cultured in DMEM (G4524-500ML, Servicebio, Wuhan, China) supplemented with 10% FBS (AB-FBS-DIA1050, ABW, China) and 100 U/mL penicillin–streptomycin–gentamicin solution (G4014-100ML, Servicebio, Wuhan, China). […] were maintained at 37 °C in a humidified 5% CO2 incubator. For experiments, 1 × 10^6 cells were seeded per T-25 culture flask.
CAL-27, SAS, and VERO cells were seeded in 96-well plates at a density of 5000 cells per well. At specified time intervals, 10 μL of Cell Counting Kit-8 (CCK-8) reagent (K1018, Apexbio, Boston, MA, USA) was added to each well and incubated for 2 h. Absorbance at 450 nm was measured using a microplate reader (Infinite M200 Pro, Tecan Group, Männedorf, Switzerland).

CAL-27 cells [2] = test: Transwell migration assay, CAL-27; conditions: CAL-27, 24 h treatment at working concentrations, vs control
Experimental: (§3) Following 24 h drug treatment at the predefined working concentrations, CAL-27 and SAS cells (5 × 10^5 cells/mL in serum-free medium) were seeded in Transwell upper chambers (200 μL/well, 1 × 10^5 cells) with 700 μL complete medium containing 10% FBS in lower chambers. After 36 h of incubation (37 °C, 5% CO2), the cells from the upper surface of the membrane were wiped off using a cotton swab, whereupon migrated cells were fixed (4% paraformaldehyde [P0099-100 mL, Beyotime, Haimen, China], 4 °C, 4 h), stained (0.1% crystal violet [C0121-100 mL, Beyotime, China], 30 min), and quantified by counting five random fields under a microscope (CX23, Olympus, Tokyo, Japan) using ImageJ (v1.8.0.322), with triplicate wells per condition.

SAS cells [3] = test: Hoechst 33342 staining, SAS; conditions: 24 h, working concentrations, vs NC
Experimental: After 24 h drug treatment at the predefined working concentrations, CAL-27 and SAS cells were dyed with 300 μL Hoechst 33342 staining (C1022, Beyotime, China) in the dark at 37 °C for 10 min. Then, the residual Hoechst 33342 staining was washed 3 times with 1 × phosphate-buffered saline (PBS, G4250-500ML, Servicebio, China). The images were then immediately examined under an inverted fluorescence microscope (CX23, Olympus, Japan).

[4] = system: MMP9 mRNA in CAL-27 cells; test: RT-qPCR MMP9 mRNA, CAL-27; conditions: CAL-27, 24 h, vs control
Experimental: as §1, §2

SAS cells [5] = test: Annexin V-FITC/PI flow cytometry apoptosis, SAS; conditions: 24 h, vs control
Experimental: After 24 h drug treatment at the predefined working concentrations, CAL-27 and SAS cells were trypsinized, centrifuged (200× g, 5 min, RT), and washed twice with 1 mL ice-cold PBS. Cell aliquots ((5–10) × 10^4 cells) were resuspended in 195 μL Annexin V-FITC binding buffer, followed by sequential addition of 5 μL Annexin V-FITC and 10 μL propidium iodide (PI) (BMS500FI-100, Thermo Fisher Scientific, Wien, Austria) with gentle mixing. After 10–20 min of incubation in darkness (20–25 °C) with intermittent resuspension (2–3 times), samples were placed on ice and analyzed within 1 h using a flow cytometer (CytExpert software [Version 2.4.0.28, Beckman Coulter, Brea, CA, USA]). Triplicate independent experiments were performed for statistical analysis.

SAS cells [6] = test: Transwell migration assay, SAS; conditions: 24 h treatment at working concentrations, vs control
Experimental: as §3

[7] = system: COX-2 mRNA in CAL-27 cells; test: RT-qPCR COX-2 mRNA, CAL-27; conditions: CAL-27, working concentrations, 24 h
Experimental: as §1, §2

[8] = system: CYP19A1 mRNA in SAS cells; test: RT-qPCR CYP19A1 mRNA, SAS; conditions: vs control group and CXB-treated group
Experimental: as §1, §2

MMP2 mRNA in SAS cells = test: RT-qPCR MMP2 mRNA, SAS; conditions: vs control
Experimental: as §1, §2

[9] = CAL-27, 24 h, CAL-27, CCK-8, 24 h, given as a range, read-out: IC50 (range)
[10] = CAL-27, CAL-27, CCK-8, read-out: IC50 CAL-27

Row | Compound | COX-2 mRNA level (COX-2 mRNA in SAS cells) | IC50 (CAL-27 cells [1]; [9]) [µM] | IC50 (CAL-27 cells [1]; [10]) [µM] | Selectivity Index CAL-27 (CAL-27 cells [1]) | migratory capacity (Transwell) (CAL-27 cells [2]) | apoptotic cells (Hoechst 33342, fluorescence microscopy) (SAS cells [3]) | MMP9 mRNA expression [4] | total apoptotic cell population (early and late apoptosis) (SAS cells [5]) | migratory capacity (Transwell) (SAS cells [6]) | COX-2 mRNA level ([7]; vs CXB-treated group) | COX-2 mRNA level ([7]; vs control) | CYP19A1 mRNA expression [8] | MMP2 mRNA expression (MMP2 mRNA in SAS cells)
1 | Cc1cc(-c2ccco2)nn1S(=O)(=O)Oc1ccccc1Cl [Compound 5f] | significantly downregulated | 52.9 to 74.8 | 64.2 | 3.50 | significantly reduced | significant increase | significantly downregulated | significantly higher; also recorded: optimal efficacy | significantly reduced | significantly lower | significantly downregulated | significantly reduced | no statistically significant suppression
2 | Cc1ccc(-c2cc(C)n(S(=O)(=O)Oc3ccc(I)cc3)n2)cc1 [Compound 4b] | significantly downregulated | 38.9 to 43.8 | 41.4 | 2.47 | significantly reduced | significant increase | significantly downregulated | significantly higher | significantly reduced | significantly lower | significantly downregulated | significantly reduced | markedly suppressed
3 | Cc1ccc(-c2cc(C)n(S(=O)(=O)Oc3ccccc3Cl)n2)cc1 [Compound 4d] | marked upregulation | 44.3 to 55.1 | 53.9 | >1.86 | significantly reduced | significant increase | significantly downregulated | significantly higher | significantly reduced | significantly lower | significantly downregulated | significantly reduced | markedly suppressed
